Patent US12674135B2, “Three-dimensional culture of immortalized skin cells on the superficial layer of which a stratum corneum is formed, method for producing said three-dimensional culture, and method for evaluating test substance using said three-dimensional culture” (National Institute of Advanced Industrial Science and …, priority 2020, dated 2026)

Key:
[1] = system: IL-8 promoter (red light-emitting luciferase) in three-dimensional culture of HaCaT
Description: (§1) The thus obtained HaCaT was used to obtain a three-dimensional culture by the same method as in Example 1. The three-dimensional culture was a three-dimensional culture in which a Cellbed was used as a plate-like substrate as in Example 1, to which a HaCaT culture layered product was adhered, and the superficial layer of the three-dimensional culture was the stratum corneum.
(§2) A cell culture insert (Falcon Culture Insert #353095) comprising a clear, colorless, PET membrane with a 0.4 μm pore size bottom for 24 wells was inserted into the wells of a 24-well plate for cell culture with black walls and a colorless bottom, the three-dimensional culture was placed in the bottom of the culture insert with the cells on top, and 0.8 mL of KGM-gold containing 0.2 mM luciferin potassium salt was placed in the well outside the culture insert. For sensitization evaluation, a test substance was loaded from the top of the three-dimensional culture inside the insert. […] As a solvent control, 30 μL of KGM medium was added from the top of the three-dimensional culture. Plastic paraffin film was sprinkled around this well plate and the luminescence was measured for 0 to 72 hours with a real-time luminescence monitoring system for cultured cells, Kronos HT (manufactured by ATTO Corporation). Measurements were taken every minute for 10 seconds for each color and continued for 0 to 72 hours. […]

[2] = system: IL-8 promoter (red light-emitting luciferase) in three-dimensional culture of HaCaT; assay: Skin sensitization evaluation: test substance loaded from the top of the three-dimensional HaCaT culture, multicolor luciferase luminescence (IL-8 promoter red / UBC promoter green); conditions: range of from 200 µM to 2 mM in KGM medium, 30 μL loaded only from the top, up to 72 hours, FIG. 10
Description: as §1, §2

[3] = system: IL-8 promoter (red light-emitting luciferase) in three-dimensional culture of HaCaT; conditions: 20 μM, 100 μM and 200 μM, loaded from bottom and top surfaces, 0 to 72 hours, FIG. 15
Description: as §1
A cell culture insert (Falcon Culture Insert #353095) comprising a clear, colorless, PET membrane with a 0.4 μm pore size bottom for 24 wells was inserted into the wells of a 24-well plate for cell culture with black walls and a colorless bottom, the three-dimensional culture obtained in Example 3 was placed in the bottom of the culture insert with the cells on top. […] 0.8 mL of this medium was placed on the outside of the culture insert, and then 30 μL was loaded from the top of the three-dimensional culture. […]
Plastic paraffin film was sprinkled around this well plate and the luminescence was measured for 0 to 72 hours with a real-time luminescence monitoring system for cultured cells, Kronos HT (manufactured by ATTO Corporation). The bioluminescence intensity of each luciferase was measured on these three-dimensional cultures as in Example 5.

Compound	emission intensity, concentration dependence [1]	relative bioluminescence intensity of red light-emitting luciferase (IL-8 promoter) to green light-emitting luciferase (ubiquitin C promoter) [2]	bioluminescence intensity ratio of red light-emitting luciferase (IL-8 promoter) to green light-emitting luciferase (ubiquitin C promoter) [3]
CCCCN(CCCC)c1ccccc1 [DA, dibutylaniline]	concentration dependence was observed		
Oc1ccc(O)cc1 [HQ, hydroquinone]		concentration-dependent increase	increased in a concentration-dependent manner
